{
  "source": "patent US20190112357A1",
  "about": "“PREVENTION OF PROTEIN DISULFIDE BOND REDUCTION” (MedImmune, LLC, priority 2016, published 2019)",
  "key": {"[1]": {"molecular_target": "T1, recombinant mammalian GR/GSSG (Homo sapiens, UniProt P00390)", "T1 construct": "purchased Abcam", "T1 sequence (P00390 44-522)": "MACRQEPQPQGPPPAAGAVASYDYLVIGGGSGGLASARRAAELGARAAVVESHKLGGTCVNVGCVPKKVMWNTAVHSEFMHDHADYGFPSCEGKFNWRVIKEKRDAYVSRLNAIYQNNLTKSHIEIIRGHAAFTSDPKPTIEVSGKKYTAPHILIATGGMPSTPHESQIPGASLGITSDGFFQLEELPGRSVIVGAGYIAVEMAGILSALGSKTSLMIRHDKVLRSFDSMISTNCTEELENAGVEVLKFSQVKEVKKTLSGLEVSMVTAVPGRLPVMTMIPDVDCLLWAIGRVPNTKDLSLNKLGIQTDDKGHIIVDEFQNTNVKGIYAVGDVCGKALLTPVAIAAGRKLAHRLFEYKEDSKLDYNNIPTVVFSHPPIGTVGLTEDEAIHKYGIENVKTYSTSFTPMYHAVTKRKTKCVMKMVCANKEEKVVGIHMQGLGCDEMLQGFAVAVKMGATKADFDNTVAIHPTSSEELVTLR", "assay": "Reduction of purified mAb B by recombinant GR/GSSG, capillary electrophoresis", "assay_type": "biochemical", "experimental": "(§1) Antibody reduction in cell culture supernatant samples was measured by detecting the presence of reduced species via capillary electrophoresis using standard procedures on a 2100 Bioanalyzer system (Agilent Technologies, Santa Clara, Calif.). Samples were diluted 1-6 fold depending on titer and analyzed under non-reducing conditions following 2100 Bioanalyzer standard protocols. Supernatant samples from 3 L bioreactors were stored frozen until all samples had been acquired and were ready for analysis. Samples were thawed on ice and analyzed immediately to evaluate the amount of reduced antibody in the reactor on each day of the run.\nUsing the same approach with recombinant mammalian enzymes, the glutathione system was evaluated by spiking mAb B into five solutions containing: 1) no enzyme, 2) 1 mM GSSG (oxidized glutathione), 3) 0.2 μM GR (glutathione reductase), 4) 0.2 μM GR with 1 mM GSSG, and 5) 0.02 μM GR with 1 mM GSSG. […] The results indicated a minimal mAb B reduction in the solutions containing GSSG alone. This is the result of an impurity in the GSSG. […] was reduced in the solutions containing both GR and GSSG.\n(§2) To confirm that the activity from a particular reductase system can translate into reduced antibody, a second method was developed to determine the impact of each reductase system on antibody reduction. The principle of the reduction assay is similar to the reductase activity assay described above. The percent of protein reduction without an inhibitor was compared to the percent of protein reduction in the presence of specific inhibitors for GR or TrxR1. In this assay, purified mAb B was spiked into solutions containing recombinant mammalian TrxR1/Trx1 or recombinant mammalian GR/GSSG and stored in an oxygen-free environment overnight. The percent of reduced mAb B antibody was evaluated using capillary electrophoresis, as set forth above."}, "[2]": {"test_system": "GR purified from a day 14 culture of cell line B", "assay": "DTNB reductase activity of 2'5'-ADP column fractions from cell line B, GR", "assay_type": "biochemical, Chinese Hamster", "conditions": "100 μM 2-AAPA, fractions B1-C2, depending on the fraction", "experimental": "Reductases were purified from cell samples to verify the specificity of reductase inhibitors. A day 14 culture of mAb B (IgG antibody produced by CHO cell line B CHO-K1SV) was pelleted by centrifugation, washed once with PBS and re-suspended in 50 mM tris buffer, pH 7.5. The solution was homogenized and filtered at 0.2 μm prior to loading onto a column of 2′5′-ADP Sepharose 4B resin. The reductases were eluted using a linearly increasing gradient of 0 to 0.3 mM NADP^+ in the same tris buffer (Yadav, et al., Parasitol. Int., 62:193-198, 2013). The reductase activity of the collected fractions was determined using the assay described in Example 3. Additionally, western blot analysis was used to detect TrxR1 and GR in the collected fractions.\nThe reductase-specific inhibitors were evaluated above using purified recombinant mammalian enzymes from rat and human. […] The added activity from the two systems was approximately equal to the total activity detected in the absence of an inhibitor for each fraction. […] That is, if the reductase inhibitors were non-specifically inhibiting both enzymatic systems, the added reductase activity would have been […] than the reductase activity detected without any added inhibitor. […] The fractions with reductase activity were pooled and further evaluated at the inhibitor concentrations assayed in the antibody reduction assay."}, "[3]": {"molecular_target": "T2, recombinant TrxR1/Trx1 (Rattus norvegicus, UniProt O89049)", "T2 sequence (O89049 1-499)": "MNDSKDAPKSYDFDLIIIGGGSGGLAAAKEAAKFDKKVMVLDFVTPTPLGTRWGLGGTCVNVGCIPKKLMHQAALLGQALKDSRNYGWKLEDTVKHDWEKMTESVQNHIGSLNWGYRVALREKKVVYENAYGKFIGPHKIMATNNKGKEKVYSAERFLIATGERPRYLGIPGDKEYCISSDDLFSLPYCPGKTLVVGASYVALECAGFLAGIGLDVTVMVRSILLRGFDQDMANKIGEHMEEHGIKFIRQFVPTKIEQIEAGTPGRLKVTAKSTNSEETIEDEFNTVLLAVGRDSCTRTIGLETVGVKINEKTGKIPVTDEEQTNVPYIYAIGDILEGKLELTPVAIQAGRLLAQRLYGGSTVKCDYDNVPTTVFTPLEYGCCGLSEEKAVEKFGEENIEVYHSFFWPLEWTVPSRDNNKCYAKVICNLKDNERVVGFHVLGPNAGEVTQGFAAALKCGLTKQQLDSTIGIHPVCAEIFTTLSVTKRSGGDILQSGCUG", "assay": "DTNB reductase activity assay, recombinant TrxR1/Trx1", "conditions": "2-AAPA 10 μM to 200 μM", "quoted_text": "This assay allows determination of the total reductase activity in a culture sample, as well as determination of the individual contribution made by thioredoxin reductase and glutathione reductase to the total reductase activity of the sample. In this assay, culture samples (cells+media) from 3 L bioreactors were stored frozen until the end of the run, after which the samples were centrifuged to remove the cell pellet then the resulting supernatant was diluted 20-fold into 100 mM tris buffer, pH 7.4, containing 0.4 mM NADPH, 0.15 mM oxidized glutathione, and 3 mM DTNB with the indicated concentration of specific reductase inhibitor. Addition of the enzyme specific inhibitors to the samples allowed the total reductase activity to be determined as well as the individual activity from the thioredoxin and glutathione systems. Reductase activity was monitored by spectroscopic measurement of the increase in absorbance at a wavelength of 412 nm. […] The detected increase in absorbance at this wavelength is caused by the reduction of DTNB (Arnér, ESJ, Biochim. Biophys. Acta—Gen. Subj., 1790:495-526, 2009).\nBriefly, culture samples were thawed on ice. […] The absorbance at a wavelength of 412 nm was determined every 30 seconds, for 20 minutes.\nActivity of the reductases was calculated as follows. The change in absorbance per minute (Δ412) for each well was determined. […]"}, "[4]": {"test_system": "glutathione system", "assay": "Reductase activity assay, day 14 culture samples, glutathione system", "assay_type": "biochemical, Chinese Hamster", "conditions": "day 14, 100 μM 2-AAPA", "experimental": "The total reductase activity was determined in the absence of any inhibitor. […] Thus, the difference in activity between a sample with ATG, and a sample without any inhibitor, indicates the amount of reductase activity contributed the thioredoxin system. […] Thus, the difference in reductase activity between a sample with 2-AAPA, and a sample without any inhibitor, indicates the amount of reductase activity contributed by the glutathione system. Although ATG and 2-AAPA are provided as exemplary specific inhibitors, other specific inhibitors discussed above can be employed in this assay instead of ATG and 2-AAPA.\n(§3) Briefly, culture samples were thawed on ice. […] The samples were then allowed to incubate 5 minutes.\n(§4) Activity of the reductases was calculated as follows. […] The activity was then calculated by the following equation: […]\nThe reductase activities of the thioredoxin and glutathione systems were evaluated in day 14 culture samples of the same CHO cell lines A, B, C, and D, using the previously evaluated specific inhibitors 2-AAPA and ATG at 100 μM and 0.5 μM respectively. Data in FIG. 6A were normalized to viable cell density. Cell lines A, B, and C were described in Example 6, above. Cell line D is the cell line CHO CAT-S, and is stably transfected to produce an IgG1 mAb (mAb D)."}, "[5]": {"molecular_target": "T3, GR/GSSG (Homo sapiens, UniProt P00390)", "T3 construct": "purchased Abcam", "T3 sequence (P00390 44-522)": "T1 sequence (P00390 44-522)", "assay": "DTNB reductase activity assay, recombinant GR/GSSG", "assay_type": "biochemical", "conditions": "2-AAPA at 100 μM and higher", "experimental": "as §3, §4"}, "[6]": {"test_system": "GR isolated from CHO cell culture", "assay": "mAb B reduction by pooled CHO fractions with NADPH and GSSG", "assay_type": "biochemical, Chinese Hamster", "conditions": "3 μM Cu^2+ or 100 μM ATG, overnight room temperature", "experimental": "(§5) Purified mAb B was spiked into several solutions containing different combinations of the pooled fractions (PF), recombinant Trx1, GSSG, NADPH, ATG, and Cu^2+. The solutions were incubated at room temperature overnight and the amount of intact antibody remaining was determined by capillary electrophoresis according to the protocol described above. In the first set of samples, purified mAb B was spiked into the pooled fractions with, and without, NADPH.\nIn the second set of samples, purified mAb B was spiked into solutions containing the pooled enzymes, NADPH, GSSG, and either no inhibitor, 3 μM Cu^2+, or 100 μM ATG. […] This solution contained GR, GSSG, and NADPH, which are needed for the glutathione system."}, "[7]": {"test_system": "TrxR1 purified from CHO cell cultures", "assay": "mAb B reduction by pooled CHO fractions with NADPH and Trx1", "assay_type": "biochemical, Chinese Hamster", "conditions": "3 μM Cu^2+ or 100 μM ATG, overnight room temperature", "experimental": "as §5\nThe third set of solutions contained the pooled enzymes, NADPH, Trx1, and either no inhibitor, 3 μM Cu^2+, or 100 μM ATG. […] In the final sample as a control, mAb B was spiked into a solution containing NADPH, Trx1, and GSSG."}, "[8]": {"molecular_target": "T4, recombinant mammalian TrxR1/Trx1 (Rattus norvegicus, UniProt O89049)", "T4 construct": "purchased Cayman Chemical (TrxR1); Abcam (Trx1)", "T4 sequence (O89049 1-499)": "T2 sequence (O89049 1-499)", "assay": "Reduction of purified mAb B by recombinant TrxR1/Trx1, capillary electrophoresis", "assay_type": "biochemical, human (Trx1)", "experimental": "as §1\nThe role of each enzymatic system in antibody reduction was evaluated by determining the conditions under which these reductase systems cause antibody reduction. Using purified recombinant mammalian reductases, the thioredoxin system was evaluated by spiking purified mAb B into five solutions containing: 1) no enzymes, 2) 1 μM TrxR1, 3) 0.1 μM TrxR1, 4) […], and 5) 0.1 μM TrxR1+2.5 μM Trx1. All samples contained 0.4 mM NADPH and were stored at room temperature overnight. Digital gel-like images were obtained from microchip-based capillary electrophoresis analysis.\nas §2"}, "[9]": {"assay": "Antibody reduction potential assay (Vacuum/GX)", "assay_type": "physicochemical", "conditions": "EDTA 9.5, 19, 38 mM or Cystine 4 and 8 mM", "experimental": "Bioreactor samples (1 mL) were obtained daily and centrifuged at 3000-4000 RPM and the supernatant was frozen immediately at −80° C. On the day prior to the assay, the samples were removed from −80° C. storage, thawed, and placed in a vacuum chamber at room temperature overnight to induce reduction of the monoclonal antibody without the interference of oxygen. After the vacuum hold, the samples were analyzed for protein fragmentation under non-reducing conditions using a BioAnalyzer system (Agilent Technologies) or a LABCHIP® GXII system (PerkinElmer) to detect antibody fragments resulting from the breakage of the antibody's interchain disulfide bonds. […]\nSamples were stored frozen until analyzed. […] After being denatured and the free thiols being capped by NEM, the samples were analyzed using a Perkin Elmer Labchip® GXII (Perkin Elmer, Waltham, Mass.) to perform size fractionation and quantification. Using the Labchip® GXII, the protein and fragments were detected by laser-induced fluorescence and translated into gel-like images (bands) and electropherograms (peaks).\nReduction potential, i.e. the potential of the molecule to be reduced under anaerobic condition, was measured by subjecting samples to vacuum analysis as described above followed addition of non-reducing sample buffer. […]"}, "[10]": {"assay": "Antibody aggregation analysis (HP-SEC)", "assay_type": "physicochemical", "conditions": "EDTA 9.5, 19, 38 mM or Cystine 4 and 8 mM", "experimental": "The percent of antibody aggregates was determined using standard size exclusion chromatography (HP-SEC) methods. An Agilent 1200 series system was used with a Tosoh Bioscience TSKgel G3000SW XL column (Tosoh Bioscience LLC, King of Prussia, Pa.) (7.8 mm×300 mm) at 1 mL/min flow rate using a mobile phase buffer of 0.1 M sodium phosphate, 0.1 M sodium sulfate, pH 6.8. The absorbance chromatography at 280 nm was used to quantify the results."}},
  "data": [
    {"compound": "CC(=O)NC(CSC(=S)Nc1ccc(NC(=S)SCC(NC(C)=O)C(=O)O)cc1)C(=O)O", "note": "(stereo not shown) [2-AAPA, 2-Acetylamino-3-[4-(2-acetylamino-2-carboxyethylsulfanylthiocarbonyl-amino)phenylthiocarbamoylsulfanyl]propionic acid]", "values": [
      {"measurement": "behaviour of 2-AAPA in the antibody reduction assay", "setting": "[1]; same method as for ATG", "result": "directly caused antibody reduction"},
      {"measurement": "share of reductase activity from glutathione reductase, determined with the inhibitor", "setting": "[2]", "result": "25-40%"},
      {"measurement": "effect on the reductase activity of TrxR1/Trx1 solutions", "setting": "[3]", "result": "minimal effect"},
      {"measurement": "share of total reductase activity caused by the glutathione system", "setting": "[4]; cell line A", "result": 70, "unit": "%"},
      {"measurement": "share of total reductase activity caused by the glutathione system", "setting": "[4]; cell line B", "result": 45, "unit": "%"},
      {"measurement": "share of total reductase activity caused by the glutathione system", "setting": "[4]; cell line C", "result": 5, "unit": "%"},
      {"measurement": "share of total reductase activity caused by the glutathione system", "setting": "[4]; cell line D", "result": 45, "unit": "%"},
      {"measurement": "GR/GSSG activity", "setting": "[5]", "result": "completely inhibiting"}
    ]},
    {"compound": "O=S(=O)([O-])[O-].[Cu+2]", "note": "[Cu^2+, copper (II) sulfate]", "values": [
      {"measurement": "antibody reduction in pooled enzymes, NADPH, GSSG", "setting": "[6]", "result": "completely inhibited all antibody reduction"},
      {"measurement": "antibody reduction caused by GR/GSSG", "setting": "[1]; 3 μM Cu^2+", "result": "almost completely inhibited"},
      {"measurement": "antibody reduction in samples containing GR/GSSG", "setting": "[1]; Cu^2+ 3-100 μM", "result": "prevented antibody reduction"},
      {"measurement": "antibody reduction in pooled enzymes, NADPH, Trx1", "setting": "[7]", "result": "marginally prevented antibody reduction"},
      {"measurement": "intact antibody remaining in the TrxR1/Trx1 sample", "setting": "[8]; 3 μM Cu^2+", "result": 20, "unit": "%"},
      {"measurement": "antibody reduction from the thioredoxin system", "setting": "[8]; Cu^2+ 3-100 μM", "result": "only partially inhibited"}
    ]},
    {"compound": "O=C(O)CN(CCN(CC(=O)O)CC(=O)O)CC(=O)O", "note": "[EDTA, ethylenediamine tetraacetic acid]", "values": [
      {"measurement": "reduction potential at the time of harvest of sheared mAb E material", "setting": "[9]", "result": "no reduction potential"},
      {"measurement": "aggregation of sheared mAb E material after 8 days at 2-8° C.", "setting": "[10]", "result": "limited the extent of mAb aggregation"}
    ]}
  ]
}
